#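 Values below derive from 48-hour exposures of cells grown in 96-well plates, with endpoints linearly interpolated between the two concentrations bracketing the appropriate inhibition level. At the GI50, growth is halved.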 The source made the active and inactive calls. Rule as the data show it: active = GI50 up to about 1.1 µM and inactive = higher.
# Columns and labels:
# Assay in all cases: inhibition of tumour cell growth, NCI panel, 48 h
# [1] = system: Malme-3M
# [2] = system: NCI-H226
# [3] = system: RPMI-8226
# [4] = system: OVCAR-8
# [5] = system: SF-539
# [6] = system: NCI-H460
# [7] = system: HT-29
# [8] = system: HL-60
# [9] = system: SK-MEL-5
# [10] = system: MDA-MB-231
# [11] = system: MOLT-4
# [12] = system: SF-268
# [13] = system: SW-620
# [14] = system: K562
# [15] = system: COLO 205
# [16] = system: RXF 393
# [17] = system: UO-31
# [18] = system: NCI-H522
# [19] = system: DU-145
# [20] = system: SR
Structure (SMILES),GI50 [1],GI50 [2],GI50 [3],GI50 [4],GI50 [5],GI50 [6],GI50 [7],GI50 [8],GI50 [9],GI50 [10],GI50 [11],GI50 [12],GI50 [13],GI50 [14],GI50 [15],GI50 [16],GI50 [17],GI50 [18],GI50 [19],GI50 [20]
C(=N/Nc1ccccn1)/c1cccnc1,66.4 µM (inactive),> 100 µM (inactive),> 100 µM (inactive),> 100 µM (inactive),> 100 µM (inactive),> 100 µM (inactive),> 100 µM (inactive),> 100 µM (inactive),> 100 µM (inactive),> 100 µM (inactive),76.2 µM (inactive),> 100 µM (inactive),> 100 µM (inactive),31 µM (inactive),> 100 µM (inactive),> 100 µM (inactive),> 100 µM (inactive),> 100 µM (inactive),> 100 µM (inactive),
N#C[C@H](C(=O)c1ccccc1F)c1nc2ccccc2[nH]1,,> 100 µM (inactive),> 100 µM (inactive),> 100 µM (inactive),> 100 µM (inactive),> 100 µM (inactive),69.2 µM (inactive),,,> 100 µM (inactive),> 100 µM (inactive),> 100 µM (inactive),> 100 µM (inactive),> 100 µM (inactive),> 100 µM (inactive),> 100 µM (inactive),93.1 µM (inactive),,> 100 µM (inactive),58.9 µM (inactive)
COc1ccc(-n2c(=O)n(-c3ccccc3)c(=O)n2-c2ccc(OC)cc2)cc1,> 100 µM (inactive),> 100 µM (inactive),> 100 µM (inactive),> 100 µM (inactive),> 100 µM (inactive),,,> 100 µM (inactive),> 100 µM (inactive),> 100 µM (inactive),> 100 µM (inactive),,> 100 µM (inactive),80.4 µM (inactive),> 100 µM (inactive),> 100 µM (inactive),> 100 µM (inactive),> 100 µM (inactive),> 100 µM (inactive),
CC(=O)N1c2ccccc2C23CCN4CC5=CCOC(O)C(C5CC42)C13 (stereo unspecified),> 100 µM (inactive),> 100 µM (inactive),> 100 µM (inactive),> 100 µM (inactive),> 100 µM (inactive),> 100 µM (inactive),> 100 µM (inactive),> 100 µM (inactive),> 100 µM (inactive),> 100 µM (inactive),> 100 µM (inactive),> 100 µM (inactive),> 100 µM (inactive),31.9 µM (inactive),> 100 µM (inactive),,> 100 µM (inactive),> 100 µM (inactive),> 100 µM (inactive),
C(=N\OCCc1ccccc1)/c1cccnc1,> 100 µM (inactive),> 100 µM (inactive),> 100 µM (inactive),> 100 µM (inactive),> 100 µM (inactive),> 100 µM (inactive),> 100 µM (inactive),5.02 µM (inactive),> 100 µM (inactive),> 100 µM (inactive),76.7 µM (inactive),> 100 µM (inactive),> 100 µM (inactive),> 100 µM (inactive),> 100 µM (inactive),> 100 µM (inactive),> 100 µM (inactive),> 100 µM (inactive),> 100 µM (inactive),
COC(=O)c1cc(C)ccc1C1CN=NC12Cc1c(C)cc(C)cc1C2=O (stereo unspecified),11.8 µM (inactive),35.8 µM (inactive),,33.8 µM (inactive),17.1 µM (inactive),18.1 µM (inactive),18.3 µM (inactive),6.1 µM (inactive),17 µM (inactive),19.7 µM (inactive),15.7 µM (inactive),20.8 µM (inactive),33.2 µM (inactive),18.4 µM (inactive),16.7 µM (inactive),22.2 µM (inactive),23 µM (inactive),13.6 µM (inactive),28.4 µM (inactive),
CCOC(=O)c1ccc(NC(=O)O/N=C(/Cl)CCl)cc1,81.1 µM (inactive),,47.2 µM (inactive),41 µM (inactive),69 µM (inactive),47.9 µM (inactive),54.6 µM (inactive),24.2 µM (inactive),31.6 µM (inactive),> 100 µM (inactive),33.6 µM (inactive),47.1 µM (inactive),50.2 µM (inactive),25.2 µM (inactive),39.6 µM (inactive),,45 µM (inactive),,65.3 µM (inactive),27.2 µM (inactive)
CS[C@]12[C@@H]3C(=O)N(C)C(=O)[C@@H]3[C@](C)(C(=O)N1C)C(=O)N2c1ccccc1,> 100 µM (inactive),> 100 µM (inactive),> 100 µM (inactive),> 100 µM (inactive),> 100 µM (inactive),,> 100 µM (inactive),> 100 µM (inactive),> 100 µM (inactive),> 100 µM (inactive),> 100 µM (inactive),> 100 µM (inactive),> 100 µM (inactive),,> 100 µM (inactive),> 100 µM (inactive),> 100 µM (inactive),> 100 µM (inactive),> 100 µM (inactive),
CN(C)CCCNc1nnc(NCCCN(C)C)c2c(=O)c3sccc3[nH]c12,15.5 µM (inactive),8.95 µM (inactive),9.02 µM (inactive),3 µM (inactive),5.51 µM (inactive),3.51 µM (inactive),,3.59 µM (inactive),1.4 µM (inactive),6 µM (inactive),3.24 µM (inactive),5.53 µM (inactive),4.56 µM (inactive),3.48 µM (inactive),2.82 µM (inactive),15 µM (inactive),2.75 µM (inactive),4.02 µM (inactive),8.75 µM (inactive),
CCOC(=O)C#Cc1ccccc1,13.1 µM (inactive),20 µM (inactive),12.2 µM (inactive),8.75 µM (inactive),5.74 µM (inactive),60 µM (inactive),7.24 µM (inactive),14.4 µM (inactive),3.72 µM (inactive),16.4 µM (inactive),2.9 µM (inactive),,8.2 µM (inactive),2.14 µM (inactive),11.2 µM (inactive),,0.741 µM (active),,25.8 µM (inactive),2.05 µM (inactive)
CC1CN=C(N(C(=O)Nc2ccccc2)c2ccccc2)S1 (stereo unspecified),23 µM (inactive),,26 µM (inactive),40.3 µM (inactive),> 10 µM (inactive),30.1 µM (inactive),17.9 µM (inactive),20 µM (inactive),16.7 µM (inactive),27.4 µM (inactive),19 µM (inactive),20.6 µM (inactive),41.5 µM (inactive),43.9 µM (inactive),59.3 µM (inactive),,38.4 µM (inactive),,53.2 µM (inactive),27.2 µM (inactive)
C=C(C)[C@@H]1CC[C@]2(C(=O)O)CC[C@]3(C)[C@H](CCC4[C@@]5(C)CC[C@H](C(=O)/C=C/c6ccc(O)c(O)c6)C(C)(C)[C@@H]5CC[C@]43C)[C@@H]12 (stereo partly specified),,,,4.46 µM (inactive),2.53 µM (inactive),2.81 µM (inactive),,2.17 µM (inactive),2.85 µM (inactive),4.36 µM (inactive),2.94 µM (inactive),5.28 µM (inactive),,3.85 µM (inactive),2.84 µM (inactive),6 µM (inactive),3.58 µM (inactive),,5.15 µM (inactive),3.4 µM (inactive)
